How the values were obtained:
11b-HSD2 [1] = target: T1, 11b-HSD2 (Homo sapiens, UniProt P80365); assay: Enzymatic assay, 11b-HSD2 dependent dehydrogenase activity; assay type: biochemical; conditions: 11b-HSD2 dehydrogenase activity, pIC50 scored 1-3, read-out: [C1] HSD2 prot Dehydro Score
T1 sequence (P80365 1-405): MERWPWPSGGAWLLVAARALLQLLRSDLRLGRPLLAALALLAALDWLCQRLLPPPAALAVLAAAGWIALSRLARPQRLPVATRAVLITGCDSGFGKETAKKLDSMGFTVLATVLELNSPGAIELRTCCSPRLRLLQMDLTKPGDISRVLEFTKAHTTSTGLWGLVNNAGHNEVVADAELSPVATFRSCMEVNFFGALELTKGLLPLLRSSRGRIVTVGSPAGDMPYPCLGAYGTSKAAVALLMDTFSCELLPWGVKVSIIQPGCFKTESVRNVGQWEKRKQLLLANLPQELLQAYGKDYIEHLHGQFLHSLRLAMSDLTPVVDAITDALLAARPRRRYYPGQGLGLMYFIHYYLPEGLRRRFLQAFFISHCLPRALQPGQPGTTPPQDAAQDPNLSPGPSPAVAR
Method: The effects on the 11b-HSD2 dependent dehydrogenase activity was studied in a reaction mixture containing 0.1M sodium phosphate buffer pH 7.5, 300 μM NAD, 100 nM cortisol (of which 2 nM is 3H-radio labelled), 1 μl drug and/or solvent and 2.5 μg recombinant protein in a final volume of 100 μl.
(§1) All incubations were performed for 45 min at 37 C in a water bath. The reaction was stopped by adding 100 μl acetonitrile containing 20 μg corticosterone as internal standard. After centrifugation, the product formation was analysed in the supernatant by HPLC on a Hypersyl BDS-C18 column using 0.05 mM ammonium acetate/methanol (50/50) as solvent. In all of the aforementioned assays, the drugs to be tested were taken from a stock solution and tested at a final concentration ranging from […] to 3.10^−9M. From the thus obtained dose response curves, the pIC50 value was calculated and scored as follows; Score 1=pIC50 value<5, Score 2=pIC50 value in the range of 5 to 6, Score 3=pIC50 value>6. (in this table NT stands for Not Tested).

11b-HSD2 [2] = target: T1, 11b-HSD2; assay: Cellular assay, 11b-HSD2 activity in HepG2 cells; assay type: cell-based; design: endogenous in cells; host or cells: HepG2 (ATCC HB-8065); conditions: 4 hour pre-incubation; for IC50: pIC50 scored 1-3, read-out: [C2] HSD2 cellular HepG2 Score
Method: The effects on 11b-HSD2 activity was studied in HepG2 and LCC-PK1-cells HepG2-cells (ATCC HB-8065) were seeded in 12 well plates at a density of 100,000 cells/ml and grown at 37 C in a humidified 5% CO2 atmosphere in MEM-Rega-3 medium supplemented with 10% heat inactivated foetal calf serum, 2 mM L-glutamine and sodium bicarbonate). Medium was refreshed twice a week. Pig kidney cells (LCC-PK1, ATCC CRL-1392) were seeded at a density of 150,000 cells/ml in 12 well plates and grown at 37 C in a humidified 5% CO2 atmosphere in Medium 199 supplemented with Earls modified salt solution, 100 U/ml penicillin, 100 μg/ml streptomycin and 10% foetal calf serum. Medium was refreshed twice a week. Twenty four hours prior to the onset of the experiment, medium was changed by medium containing 10% charcoal stripped foetal calf serum.
Following a 4 hour pre-incubation with test compound, 0.5 μCi ^3H-cortisol or corticosterone, was added to the cultures. One hour later, the medium was extracted on Extrelut^3-columns with 15 ml diethyl ether and the extract was analysed by HPLC as described above.
(§2) As for the enzymatic assays, the compounds to be tested were taken from a stock solution and tested at a final concentration ranging from […] to 3.10^−9M. From the thus obtained dose response curves, the pIC50 value was calculated and scored as follows; Score 1=pIC50 value<5, Score 2=pIC50 value in the range of 5 to 6, Score 3=pIC50 value>6. (in this table NT stands for Not Tested).

11b-HSD1 [3] = target: T2, 11b-HSD1 (Mus musculus, UniProt P50172); assay: Cellular assay, 11b-HSD1 activity in differentiated 3T3-L1 cells; assay type: cell-based; conditions: 4 hour pre-incubation; for IC50: pIC50 scored 1-3, read-out: [C2] HSD1 cellular 3T3-L1 Score
T2 construct: endogenous in cells; host or cells: 3T3-L1 (ATCC-CL-173), differentiated into adipocytes
T2 sequence (P50172 whole entry): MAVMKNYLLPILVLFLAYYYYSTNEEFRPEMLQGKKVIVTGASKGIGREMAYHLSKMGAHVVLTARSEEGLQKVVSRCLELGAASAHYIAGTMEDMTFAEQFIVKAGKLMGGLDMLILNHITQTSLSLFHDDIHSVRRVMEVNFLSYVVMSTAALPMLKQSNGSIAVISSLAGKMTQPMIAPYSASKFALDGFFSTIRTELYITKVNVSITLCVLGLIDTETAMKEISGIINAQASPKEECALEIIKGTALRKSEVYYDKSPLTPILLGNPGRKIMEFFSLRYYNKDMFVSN
Method: The effects on 11b-HSD1 activity was measured in differentiated 3T3-L1 cells and rat hepatocytes.
Mouse fibroblast 3T3-L1 cells (ATCC-CL-173) were seeded at a density of 16500 cells/ml in 12 well plates and grown for 7 days in DMEM medium (supplemented with 10% heat inactivated foetal calf serum, 2 mM glutamine and 25 mg gentamycin) at 37 C in a humidified 5% CO2 atmosphere. Medium was refreshed twice a week. Fibroblasts were differentiated into adipocytes at 37 C in a 5% CO2 humidified atmosphere in growth medium containing 2 μg/ml insulin, 55 μg/ml IBMX and 39.2 μg/ml dexamethasone.
Following a 4 hour pre-incubation with test compound, 0.5 μCi ^3H-cortisone or dehydrocorticosterone, was added to the cultures. One hour later, the medium was extracted on Extrelut^3-columns with 15 ml diethyl ether and the extract was analysed by HPLC as described above.
as §2

11b-HSD1 [4] = target: 11b-HSD1 (Homo sapiens, UniProt P28845); assay: Enzymatic assay, 11b-HSD1 reductase activity (conversion of cortisone into cortisol); assay type: biochemical; conditions: pIC50 scored 1-3, read-out: [C1] HSD1-prot Reduct Score
Sequence of 11b-HSD1 (Homo sapiens, UniProt P28845) (P28845 whole entry): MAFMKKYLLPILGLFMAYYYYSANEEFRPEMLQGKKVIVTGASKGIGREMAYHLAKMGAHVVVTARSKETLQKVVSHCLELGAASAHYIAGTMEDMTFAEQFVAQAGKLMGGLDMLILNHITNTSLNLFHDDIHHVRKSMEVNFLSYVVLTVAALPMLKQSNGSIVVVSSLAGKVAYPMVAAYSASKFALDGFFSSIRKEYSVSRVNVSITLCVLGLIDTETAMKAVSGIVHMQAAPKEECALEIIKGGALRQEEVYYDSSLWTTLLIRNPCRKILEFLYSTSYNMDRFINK
Method: The effects of compounds on 11b-HSD1 dependent conversion of cortisone into cortisol (reductase activity) was studied in a reaction mixture containing 30 mM Tris-HCl buffer pH 7.2, 180 μM NADPH, 1 mM EDTA, 2 μM cortisone, 1 μl drug and/or solvent and 11 μg recombinant protein in a final volume of 100 μl.
as §1

Structure (SMILES) | IC50 (11b-HSD2 [1]) [µM] | IC50 (11b-HSD2 [2]) [µM] | IC50 (11b-HSD1 [3]) [µM] | IC50 (11b-HSD1 [4]) [µM] | [C2] HSD2 cellular HepG2 Score (11b-HSD2 [2]; pIC50 scored 1-3) | [C2] HSD1 cellular 3T3-L1 Score (11b-HSD1 [3]; pIC50 scored 1-3)
CC(C)(C(=O)NC1C2CC3CC(C2)CC1C3)c1ccc(Cl)cc1 (stereo not shown) [Compound 1] | > 10 | > 10 | < 1 | – | – | –
Cc1cc(C)cc(C(C)(C)C(=O)NC2C3CC4CC(C3)CC2C4)c1 (stereo not shown) [Compound 3] | – | > 10 | < 1 | < 1 | – | –
CC(C)(C(=O)NC1C2CC3CC(C2)CC1C3)c1cccc(O)c1 (stereo not shown) [Compound 5] | > 10 | > 10 | < 1 | < 1 | – | –
CC(C)(C(=O)NC1C2CC3CC(C2)CC1C3)c1cccc(OCC(=O)O)c1 (stereo not shown) [Compound 6] | > 10 | > 10 | < 1 | 1 to 10 | – | –
CN(C)CCOc1cccc(C(C)(C)C(=O)NC2C3CC4CC(C3)CC2C4)c1 (stereo not shown) [Compound 7] | – | > 10 | < 1 | > 10 | – | –
O=C(NC12CC3CC(CC(C3)C1)C2)C1(c2ccccc2)CCC1 [Compound 16] | > 10 | > 10 | 1 to 10 | – | – | –
CC1CCCCC1NC(=O)C1(c2ccccc2)CC1 (stereo not shown) [Compound 19] | > 10 | > 10 | 1 to 10 | – | – | –
O=C(NC1CC2CCC1C2)C1(c2ccccc2)CCCC1 (stereo not shown) [Compound 22] | > 10 | > 10 | 1 to 10 | – | – | –
CC(C(=O)NC1C2CC3CC(C2)CC1C3)c1ccccc1 (stereo not shown) [Compound 28] | – | > 10 | < 1 | – | – | –
CCC(C(=O)NC1C2CC3CC(C2)CC1C3)c1ccccc1 (stereo not shown) [Compound 29] | – | > 10 | < 1 | – | – | –
O=C(Cc1ccccc1)NC1C2CC3CC(C2)CC1C3 (stereo not shown) [Compound 30] | – | > 10 | < 1 | – | – | –
O=C(NCC12CC3CC(CC(C3)C1)C2)C1(c2ccccc2)CC1 [Compound 31] | > 10 | > 10 | < 1 | – | – | –
O=C(NCC12CC3CC(CC(C3)C1)C2)C1(c2ccccc2)CCCC1 [Compound 35] | > 10 | > 10 | 1 to 10 | – | – | –
CC(C)(C(=O)NC1C2CC3CC(C2)CC1C3)c1ccc(F)cc1 (stereo not shown) [Compound 41] | > 10 | > 10 | < 1 | < 1 | – | –
COC(C(=O)NC1C2CC3CC(C2)CC1C3)c1ccccc1 (stereo not shown) [Compound 43] | > 10 | > 10 | 1 to 10 | < 1 | – | –
CC(C)(C(=O)NC1CCCCCCC1)c1ccccc1 [Compound 46] | > 10 | > 10 | < 1 | > 10 | – | –

Structure (SMILES) | IC50 (11b-HSD2 [1]) [µM] | IC50 (11b-HSD2 [2]) [µM] | IC50 (11b-HSD1 [3]) [µM] | IC50 (11b-HSD1 [4]) [µM] | [C2] HSD2 cellular HepG2 Score (11b-HSD2 [2]; pIC50 scored 1-3) | [C2] HSD1 cellular 3T3-L1 Score (11b-HSD1 [3]; pIC50 scored 1-3)
COc1ccc(C(C)(C)C(=O)NC2C3CC4CC(C3)CC2C4)cc1 (stereo not shown) [Compound 47] | > 10 | > 10 | < 1 | < 1 | – | –
CC(C)(C(=O)NC1C2CCCC1CCC2)c1ccccc1 (stereo not shown) [Compound 48] | > 10 | > 10 | < 1 | > 10 | – | –
CC1(C)C2CCC1(C)C(NC(=O)C1(c3ccccc3)CC1)C2 (stereo not shown) [Compound 55] | > 10 | > 10 | < 1 | – | – | –
CC1C(NC(=O)C2(c3ccccc3)CC2)CC2CC1C2(C)C (stereo not shown) [Compound 56] | > 10 | > 10 | 1 to 10 | – | – | –
CC1(C)C2CCC1(C)C(NC(=O)C1(c3ccccc3)CCCC1)C2 (stereo not shown) [Compound 57] | > 10 | > 10 | 1 to 10 | – | – | –
O=C(NC1CC2CCC1C2)C1(c2ccccc2)CC1 (stereo not shown) [Compound 64] | > 10 | > 10 | 1 to 10 | – | – | –
CC(C)(C(=O)NC1C2CC3CC(C2)CC1C3)c1cccc(OCCN2CCCC2)c1 (stereo not shown) [Compound 71] | – | > 10 | < 1 | < 1 | – | –
CN(Cc1ccccc1)c1ccc(C(C)(C)C(=O)NC2C3CC4CC(C3)CC2C4)cc1 (stereo not shown) [Compound 81] | – | > 10 | 1 to 10 | < 1 | – | –
COc1ccc(OC)c(C(C)(C)C(=O)NC2C3CC4CC(C3)CC2C4)c1 (stereo not shown) [Compound 93] | – | > 10 | < 1 | < 1 | – | –
CC(C)(C(=O)NC1C2CC3CC(C2)CC1C3)c1cc(F)cc(F)c1 (stereo not shown) [Compound 95] | – | > 10 | < 1 | > 10 | – | –
CC(C)(C(=O)NC1C2CC3CC(C2)CC1C3)c1ccc(Cl)cc1Cl (stereo not shown) [Compound 106] | – | > 10 | < 1 | > 10 | – | –
COC12CC3CC(C1)C(NC(=O)C(C)(C)c1ccccc1)C(C3)C2 (stereo not shown) [Compound 109] | – | > 10 | < 1 | < 1 | – | –
COc1ccc(OC)c(C(C)(C)C(=O)NC2C3CC4CC(C3)CC2C4)c1 (stereo not shown) [Compound 154] | – | – | – | > 10 | 1 (Score 1=pIC50 value<5) | 3 (Score 3=pIC50 value>6)
O=C(NC1C2CC3CC(C2)CC1C3)C1CCc2ccccc2N1 (stereo not shown) [Compound 253] | > 10 | > 10 | < 1 | – | – | –
O=C(NC1C2CC3CC(C2)CC1C3)[C@H]1Cc2ccccc2CN1 (stereo partly shown) [Compound 255] | > 10 | > 10 | < 1 | – | – | –
